ChEMBL document CHEMBL1155604, “New norditerpenoid alkaloids from Aconitum falconeri” (J Nat Prod, 2000)
The source made the active and inactive calls. The rule behind the calls is not given here.

Key:
Electrophorus electricus = assay: (§1) Inhibition of electric eel acetylcholinesterase type VI-S after 30 mins by modified Ellman's assay
[1] = as §1; design: species or system Electrophorus electricus

SMILES | Activity (Electrophorus electricus) | IC50 [1] [µM]
CCO[C@]12C[C@H](OC)[C@@]3(O)C[C@H]([C@@H]1[C@H]3OC(=O)c1ccc(OC)c(OC)c1)[C@@]13C4[C@@H]2[C@H](OC)[C@@H]1[C@](COC)(CN4CC)[C@H](O)C[C@@H]3OC | inactive | –
COC[C@]12CN(C=O)C3[C@@H]4[C@H](OC)[C@H]1[C@@]3([C@@H](OC)C[C@H]2O)[C@@H]1C[C@]2(O)[C@@H](OC)C[C@@]4(OC(C)=O)[C@H]1[C@H]2OC(=O)c1ccc(OC)c(OC)c1 [FALEOCONITINE] | – | 293
CCN1C[C@]2(COC)[C@H](O)C[C@H](OC)[C@]34C1[C@H]([C@H](OC)[C@H]23)[C@@]1(OC(C)=O)C[C@H](OC)[C@@]2(O)C[C@@H]4[C@@H]1[C@H]2OC(=O)c1ccc(OC)c(OC)c1 [PSEUDACONITINE] | – | 278
